{"source": "paper PMC11979685", "about": "“Synthesis of Derivatives of the Antibiotic Albicidin: The N‐Terminal Fragment as Key to Control Potency and Resistance Mediated by the Binding Protein AlbA” (Chemistry (Weinheim an Der Bergstrasse, Germany), 2025)", "key": {"[1]": {"molecular_target": "bacterial DNA gyrase", "parameters": "method as in PMID 17074789", "details": "read-out: half maximum inhibitory concentration (IC50), DNA gyrase; cited from earlier work"}, "[2]": {"molecular_target": "E. coli DNA gyrase (Escherichia coli, UniProt P0AES4)", "sequence (P0AES4 whole entry)": "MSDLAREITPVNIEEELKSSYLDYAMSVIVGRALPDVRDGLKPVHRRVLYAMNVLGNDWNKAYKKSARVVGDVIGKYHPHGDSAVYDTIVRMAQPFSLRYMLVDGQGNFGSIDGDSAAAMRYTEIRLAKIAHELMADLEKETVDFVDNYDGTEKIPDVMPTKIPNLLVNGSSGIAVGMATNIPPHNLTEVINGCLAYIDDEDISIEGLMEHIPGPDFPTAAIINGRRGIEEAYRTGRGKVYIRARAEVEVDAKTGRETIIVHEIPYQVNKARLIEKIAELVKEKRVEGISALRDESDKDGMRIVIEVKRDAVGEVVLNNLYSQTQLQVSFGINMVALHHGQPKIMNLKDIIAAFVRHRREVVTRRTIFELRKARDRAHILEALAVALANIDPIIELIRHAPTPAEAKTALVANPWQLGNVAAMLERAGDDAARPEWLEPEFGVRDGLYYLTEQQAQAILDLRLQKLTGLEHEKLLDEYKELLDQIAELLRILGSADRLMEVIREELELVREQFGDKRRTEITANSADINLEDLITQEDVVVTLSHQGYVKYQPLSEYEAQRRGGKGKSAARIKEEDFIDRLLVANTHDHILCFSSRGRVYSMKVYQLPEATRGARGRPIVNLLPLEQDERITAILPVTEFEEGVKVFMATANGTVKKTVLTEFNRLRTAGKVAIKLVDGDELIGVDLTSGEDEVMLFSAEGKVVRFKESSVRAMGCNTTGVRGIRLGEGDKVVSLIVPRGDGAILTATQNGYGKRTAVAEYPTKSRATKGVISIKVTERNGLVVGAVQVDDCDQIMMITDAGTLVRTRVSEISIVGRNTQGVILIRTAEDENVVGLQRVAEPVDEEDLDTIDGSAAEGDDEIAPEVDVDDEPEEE", "experiment": "E. coli gyrase DNA cleavage assay", "type": "biochemical", "parameters": "key to Gyrase inhibition strong+ / weak −: + strong inhibition; − weak inhibition in comparison to compound 16", "details": "qualitative DNA cleavage assay at 1 μM and 10 μM, in comparison to compound 16", "experimental": "The target activity of the synthesized derivatives was investigated using a DNA cleavage assay with purified and enzymatically active E. coli DNA gyrase[8] (see SI). In this assay, albicidin‐stabilized complexes of gyrase and plasmid DNA are trapped, and subsequently denatured and deproteinated to reveal DNA linearized by gyrase. […] For the best performing compounds, which were able to fully stabilize the cleavage complex at a concentration of 1 μM, the concentrations at half‐maximum cleavage (CC50) were determined (Figure 3).\n1.2 Escherichia coli Gyrase Cleavage Inhibition Assay\nE. coli gyrase cleavage assays were executed by setting up a master mix including 0.25 µg relaxed plasmid (pBR322) in 35 mM Tris-HCl (pH 7.5), 24 mM KCl, 4 mM MgCl2, 2 mM dithithreitol (DTT), 1.8 mM spermidine, 1 mM ATP, 6.5% (wt/vol) glycerol and 0.1 mg/ml bovine serum albumin per reaction.\nOf this stock solution, 13.2 µL was aliquoted for each reaction into 1.5 mL Eppendorf tubes and supplemented with 0.3 µL of the appropriate compound dilution or DMSO with a […] DMSO concentration of 2% per reaction. The reactions were started with 1.5 µL of 50 nM (pre-screening) or 40 nM (IC50 determinations) wt E. coli gyrase in dilution buffer (50 mM Tris-HCl (pH 7.5), 100 mM KCl, 2 mM DTT, 1 mM EDTA, and 50% (wt/vol) glycerol) for a […] volume of 15 µL. Reactions were incubated at 37°C for 30 minutes before addition of 1.5 µL 0.2% (wt/vol) SDS and 0.75 µL proteinase K (0.2 mg/mL) and further incubation at 37°C for 30 minutes to trap cleavage complexes. Reactions were stopped with 15 µL chloroform:isoamyl alcohol (24: 1 v/v) and 15 µL of STEB (40% (wt/vol) sucrose, […] Tris-Cl pH 8, 10 mM EDTA, 0.5 mg/mL bromophenol blue). After brief vortexing and centrifugation at 2,300g for 5 min, 15 µL of the aqueous phase was loaded onto 1% (wt/vol) agarose in TAE (Tris-acetate […] and EDTA […]) gels supplemented with 10 µg/mL ethidium bromide.\nThe gels were run at 85 V for 2 hours.\nDNA was visualized (602/50, UV Trans, auto optimal exposure) with a ChemiDoc MP (Bio-Rad Laboratories Inc., equipped with ImageLab Touch Software v2.0.0.27) and the percentage of cleaved DNA relative to the total amount of DNA per lane was determined with ImageJ software.[2] IC50 curves were generated in GraphPad Prism (v10.0.0) using the non-linear regression curve fit variable slope with four parameters and least squares regression."}, "[3]": {"system": "E. coli", "experiment": "MIC against E. coli in presence of 50 % human serum", "type": "cell-based", "details": "Escherichia coli; E. coli in presence of 50 % human serum; read-out: MICEc 50%HS"}, "[4]": {"experiment": "Reverse-phase HPLC retention time as estimate of lipophilicity", "type": "physicochemical", "details": "indicator of lipophilicity", "excerpt": "As mentioned before, albicidin 1 is a rather hydrophobic compound and improving its aqueous solubility is desirable. The lipophilicity of drug molecules is commonly characterized by the octanol/water partition coefficient (logP). An alternative approach relies on the correlation between lipophilicity and the retention time (Rt) on a reverse‐phase HPLC column.[31] This approach works well if structurally related compounds are compared as is the case for this SAR study. Rt was thus used to estimate the hydrophilicity of albicidin 1 and its derivatives 2–24 (Table 1).[32]"}, "[5]": {"system": "Salmonella typhimurium TA100", "experiment": "MIC determination (broth microdilution)", "type": "cell-based", "details": "Salmonella enterica, read-out: MIC S. typh.", "experimental": "(§1) After completing the syntheses, the antibacterial activity of A‐variations 4–24 was assessed by determination of MIC values against a basic set of gram‐negative and gram‐positive bacteria (Table 1). The monocyclic derivatives 4–8 featuring a cyano‐, trifluoromethyl‐, methoxy‐ and fluoro‐ substituent in para‐position were very active against the gram–negative E. coli and S. typhimurium strains with MIC values in the same range as 3rd Gen albicidin 3 or ciprofloxacin which is the gold standard for gyrase inhibitors. […] These findings are in agreement with previous studies showing good activities for cyano, trifluoromethyl, methoxy and fluoro substituents in the para‐position of different aromatic rings in the building block A.[12, 13] The activity of the monocyclic derivatives 4–8 against the gram‐positive strains B. subtilis and M. luteus were similar but slightly less pronounced compared to the lead structure 3.\n(§2) 1.1 Determination of Minimal Inhibitory Concentrations (MIC)\n(§3) Minimal inhibitory concentration (MIC) against selected bacterial strains values were determined according to the ninth edition of the Approved Standard M07-A9.[1] 20 μL of cryo stocks of bacterial strains were suspended in 20 mL LB medium (Lysogeny broth: 10 g/L peptone, 5 g/L yeast extract, 5 g/L NaCl). Following incubation overnight at 37°C, 200 rpm, the test inoculum was adjusted by 0.5 McFarland Standard in cation adjusted Mueller-Hinton broth (BBLTM Mueller-Hinton Broth II, Becton, Dickinson and Company, New Jersey, USA) to approximately 1x10^6 CFU mL-1. 95 μL of the bacterial inoculum were applied per well of a 96-well plate. Albicidin and albicidin derivatives 3−24 were dissolved in DMSO (100%) to an initial concentration of 2560 μg/mL and serially diluted in DMSO (100%). Initial solution and serial dilutions of Ciprofloxacin were prepared in 0.1 N HCL, respectively. 5 μL of each antibiotic dilution were added to the microdilution tray to reach albicidin concentrations of 128 μg/mL to 0.016 μg/mL per well. One row of each well plate served as a growth control without antibiotic substances and another row of the microdilution tray served as sterility control (only MHB II - media). The antimicrobial effect of the solvent (DMSO) was tested by adding 5 μL DMSO to several wells. Purity check and cell titer control were performed according to International S tandard M07-A9 on Mueller-Hinton II Agar (Mueller Hinton II Broth, 15 g/L agar-agar). Both microdilution trays and agar plates were incubated at 30−37°C for 16 h and subsequently analyzed for growth inhibition by naked eye. The following primary panel of microorganisms were purchased from German Collection of Microorganisms and Cell Cultures (DSMZ):\n(§4) Escherichia coli DSM 1116\n(§5) Micrococcus luteus DSM 1790\n(§6) Mycobacterium phlei DSM 750\n(§7) Salmonella typhimurium TA100 was kindly provided by Prof. Dr. Vera Meyer (Technische Universität Berlin). […]\n(§8) was purchased as part of the single gene knockout library of E. coli K12 BW25113 (Keio collection) from Horizon Discovery group plc (Cambridge, UK)."}, "[6]": {"system": "Bacillus subtilis DSM 10", "experiment": "MIC determination (broth microdilution)", "type": "cell-based", "details": "DSM10, read-out: MIC B. sub.", "experimental": "as §1, §2, §3, §4, §5, §6, §7, §8"}, "[7]": {"system": "E. coli DSM1116", "experiment": "MIC determination (broth microdilution)", "type": "cell-based", "details": "Escherichia coli, DSM1116; read-out: MIC E. coli DSM1116", "experimental": "as §1, §2, §3, §4, §5, §6, §7, §8"}, "[8]": {"system": "E. coli BW25113", "experiment": "MIC determination (broth microdilution)", "type": "cell-based", "details": "Escherichia coli, BW25113; read-out: MIC E. coli BW25113", "experimental": "as §1, §2, §3, §4, §5, §6, §7, §8"}, "[9]": {"system": "Micrococcus luteus DSM 1790", "experiment": "MIC determination (broth microdilution)", "type": "cell-based", "details": "DSM1790, read-out: MIC M. luteus", "experimental": "as §1, §2, §3, §4, §5, §6, §7, §8"}, "[10]": {"system": "Mycobacterium phlei DSM 750", "experiment": "MIC determination (broth microdilution)", "type": "cell-based", "details": "Mycolicibacterium phlei, DSM750; read-out: MIC M. phlei", "experimental": "as §1, §2, §3, §4, §5, §6, §7, §8"}}, "data": [{"smiles": "COc1c(NC(=O)c2ccc(NC(=O)c3ccc(NC(=O)[C@H](CC#N)NC(=O)c4ccc(NC(=O)/C(C)=C/c5ccc(O)cc5)cc4)cc3)c(OC)c2O)ccc(C(=O)O)c1O", "note": "[compound 1, albicidin]", "values": [{"measurement": "IC50", "setting": "[1]", "value": 0.04, "unit": "µM"}]}, {"smiles": "COc1ccc(C(=O)Nc2ccc(C(=O)N[C@@H](Cc3c[nH]nn3)C(=O)Nc3ccc(C(=O)Nc4ccc(C(=O)Nc5ccc(C(=O)O)c(O)c5OC)c(O)c4OC)nc3)cc2)nc1", "note": "[compound 6]", "values": [{"measurement": "Gyrase inhibition strong+ / weak −", "setting": "[2]", "value": "+"}, {"measurement": "MIC", "setting": "[3]", "value": 2, "unit": "mg/L"}, {"measurement": "Rt (retention time)", "setting": "[4]", "value": 8.29, "unit": "min"}, {"measurement": "MIC", "setting": "[5]", "value": "≤ 0.016", "unit": "mg/L"}, {"measurement": "MIC", "setting": "[6]", "value": 0.125, "unit": "mg/L"}, {"measurement": "MIC", "setting": "[7]", "value": 0.031, "unit": "mg/L"}, {"measurement": "MIC", "setting": "[8]", "value": "≤ 0.016", "unit": "mg/L"}, {"measurement": "MIC", "setting": "[9]", "value": 0.125, "unit": "mg/L"}, {"measurement": "MIC", "setting": "[10]", "value": 2, "unit": "mg/L"}]}, {"smiles": "COc1c(NC(=O)c2ccc(NC(=O)c3ccc(NC(=O)[C@H](Cc4c[nH]nn4)NC(=O)c4ccc(NC(=O)c5ccc(C(F)(F)F)cc5)cc4)cn3)c(OC)c2O)ccc(C(=O)O)c1O", "note": "[compound 5]", "values": [{"measurement": "Gyrase inhibition strong+ / weak −", "setting": "[2]", "value": "−"}, {"measurement": "MIC", "setting": "[3]", "value": 4, "unit": "mg/L"}, {"measurement": "Rt (retention time)", "setting": "[4]", "value": 8.99, "unit": "min"}, {"measurement": "MIC", "setting": "[5]", "value": "≤ 0.016", "unit": "mg/L"}, {"measurement": "MIC", "setting": "[6]", "value": 0.125, "unit": "mg/L"}, {"measurement": "MIC", "setting": "[7]", "value": 0.016, "unit": "mg/L"}, {"measurement": "MIC", "setting": "[8]", "value": 0.063, "unit": "mg/L"}, {"measurement": "MIC", "setting": "[9]", "value": 0.5, "unit": "mg/L"}, {"measurement": "MIC", "setting": "[10]", "value": 1, "unit": "mg/L"}]}, {"smiles": "COc1c(NC(=O)c2ccc(NC(=O)c3ccc(NC(=O)[C@H](Cc4c[nH]nn4)NC(=O)c4ccc(NC(=O)c5ccc(F)cn5)cc4)cn3)c(OC)c2O)ccc(C(=O)O)c1O", "note": "[compound 7]", "values": [{"measurement": "Gyrase inhibition strong+ / weak −", "setting": "[2]", "value": "+"}, {"measurement": "MIC", "setting": "[3]", "value": 4, "unit": "mg/L"}, {"measurement": "Rt (retention time)", "setting": "[4]", "value": 8.29, "unit": "min"}, {"measurement": "MIC", "setting": "[5]", "value": "≤ 0.016", "unit": "mg/L"}, {"measurement": "MIC", "setting": "[6]", "value": 0.125, "unit": "mg/L"}, {"measurement": "MIC", "setting": "[7]", "value": 0.031, "unit": "mg/L"}, {"measurement": "MIC", "setting": "[8]", "value": 0.031, "unit": "mg/L"}, {"measurement": "MIC", "setting": "[9]", "value": 0.125, "unit": "mg/L"}, {"measurement": "MIC", "setting": "[10]", "value": 2, "unit": "mg/L"}]}]}
